{
  "source": "patent US20240383950A1",
  "about": "“RECOMBINANT GLYCAN BINDING PROTEINS AND ITS USE” (UNICHEM LABORATORIES LIMITED, priority 2021, published 2024)",
  "test": "MTS-PMS cytotoxicity bioassay, MDA-MB 231",
  "settings": "human, MDA-MB 231 breast cancer cells",
  "excerpt": "5000 cells/well were used for testing.\nThe drug Doxorubicin was used as system suitability (SST) reference.",
  "data": [
    {"smiles": "COc1cccc2c1C(=O)c1c(O)c3c(c(O)c1C2=O)C[C@@](O)(C(=O)CO)C[C@@H]3O[C@H]1C[C@H](N)[C@H](O)[C@H](C)O1", "note": "[Doxorubicin]", "values": [
      {"measurement": "cytotoxicity at 100 μm", "value": 45, "unit": "%"}
    ]}
  ]
}
